According to patent publication US3953478A, “Tetrahydrofuranyl bromoacetates biocides” (Stauffer Chemical Company, priority 1975, dated 1976):
≈ marks a conversion by molar mass, not a printed value.

Experiments:
Type in all cases: cell-based
[1] = test system: Enterobacter aerogenes; assay: In Vitro Agar Screening Test; conditions: Klebsiella aerogenes, nutrient agar, 37°C, levels 1, 5, 10, 50 μg/ml, read-out: Minimum Inhibitory Concentration
Procedure: (§1) This test measures the bactericidal, fungicidal and algaecidal properties of a compound when in contact with growing bacteria, fungi or algae in an artificial medium. The test is conducted by adding 20 ml portions of a suitable warm sterile agar solution into 20 × 100 mm Petri dishes at levels of 1, 5, 10 and 50 μg/ml and mixed with the warm mobile agar solution. The treated agar mixture is then allowed to come to room temperature and solidify. Cells of the chosen organism are streaked on the surface of the solidified agar and are then incubated for such lengths of time that untreated samples containing no toxicant show luxurious growth typical of the particular organism. This time varies from 24 hours to 1 week depending on the particular organism. The fungi are incubated at 30°C and the bacteria are incubated at 37°C. The algae are incubated at room temperature under artificial light. Nutrient agar is used as the medium in this test for the bacteria. Potato dextrose agar is used as the medium for the fungi with the exception of Trichophyton mentagrophytes for which Emmons agar is used. A modified Jack Meyers agar is used for the growth of the algae.
(§2) The extent of growth is noted at the end of the incubation period.

[2] = test system: Scenedesmus obliquus; assay: In Vitro Agar Screening Test; conditions: Tetradesmus obliquus, modified Jack Meyers agar, room temperature, artificial light, levels 1, 5, 10, 50 μg/ml, read-out: Minimum Inhibitory Concentration
Procedure: as §1, §2

[3] = test system: Chlorella pyrenoidosa; assay: In Vitro Agar Screening Test; conditions: Auxenochlorella pyrenoidosa, modified Jack Meyers agar, room temperature, artificial light, levels 1, 5, 10, 50 μg/ml, read-out: Minimum Inhibitory Concentration
Procedure: as §1, §2

[4] = test system: Pseudomonas fluorescens; assay: In Vitro Agar Screening Test; conditions: nutrient agar, 37°C, levels 1, 5, 10, 50 μg/ml, read-out: Minimum Inhibitory Concentration
Procedure: as §1, §2

[5] = test system: Escherichia coli; assay: In Vitro Agar Screening Test; conditions: nutrient agar, 37°C, levels 1, 5, 10, 50 μg/ml, read-out: Minimum Inhibitory Concentration
Procedure: as §1, §2

[6] = test system: Bacillus cereus; assay: In Vitro Agar Screening Test; conditions: nutrient agar, 37°C, levels 1, 5, 10, 50 μg/ml, read-out: Minimum Inhibitory Concentration
Procedure: as §1, §2

[7] = test system: Pseudomonas aeruginosa; assay: In Vitro Agar Screening Test; conditions: nutrient agar, 37°C, levels 1, 5, 10, 50 μg/ml, read-out: Minimum Inhibitory Concentration
Procedure: as §1, §2

[8] = test system: Aspergillus oryzae; assay: In Vitro Agar Screening Test; conditions: potato dextrose agar, 30°C, levels 1, 5, 10, 50 μg/ml, read-out: Minimum Inhibitory Concentration
Procedure: as §1, §2

[9] = test system: Trichophyton mentagrophytes; assay: In Vitro Agar Screening Test; conditions: Emmons agar, 30°C, levels 1, 5, 10, 50 μg/ml, read-out: Minimum Inhibitory Concentration
Procedure: as §1, §2

[10] = test system: Pencillium ochra-chloron; assay: In Vitro Agar Screening Test; conditions: potato dextrose agar, 30°C, levels 1, 5, 10, 50 μg/ml, read-out: Minimum Inhibitory Concentration
Procedure: as §1, §2

[11] = test system: Pencillium expansum; assay: In Vitro Agar Screening Test; conditions: potato dextrose agar, 30°C, levels 1, 5, 10, 50 μg/ml, read-out: Minimum Inhibitory Concentration
Procedure: as §1, §2

[12] = test system: Trichoderma sp.; assay: In Vitro Agar Screening Test; conditions: potato dextrose agar, 30°C, levels 1, 5, 10, 50 μg/ml, read-out: Minimum Inhibitory Concentration
Procedure: as §1, §2

[13] = test system: Aspergillus fumigatus; assay: In Vitro Agar Screening Test; conditions: potato dextrose agar, 30°C, levels 1, 5, 10, 50 μg/ml, read-out: Minimum Inhibitory Concentration
Procedure: as §1, §2

[14] = test system: Euglena gracilis; assay: In Vitro Agar Screening Test; conditions: modified Jack Meyers agar, room temperature, artificial light, levels 1, 5, 10, 50 μg/ml, read-out: Minimum Inhibitory Concentration
Procedure: as §1, §2

[15] = test system: Aspergillus niger; assay: In Vitro Agar Screening Test; conditions: potato dextrose agar, 30°C, levels 1, 5, 10, 50 μg/ml, read-out: Minimum Inhibitory Concentration
Procedure: as §1, §2

[16] = test system: Staphylococcus aureus; assay: Staphylococcus Aureus Use Dilution Test; conditions: Tryptic Soy Broth, 24 hours at 37°C, minimum concentration in which no growth occurs, read-out: Minimum Inhibitory Concentration
Procedure: This test measures the bacteriostatic effectiveness of a particular test compound against Staphylococcus aureus. Tryptic Soy Broth is dispensed aseptically into sterile 13 × 100 mm clear glass culture tubes. The first tube receives 3.6 ml of medium and tubes 2 through 10 receive 2.0 ml of medium. The test compound is dissolved in acetone to give 10 ml of a solution of 0.10% of the test compound. Using a sterile syringe, 0.4 ml of the test compound solution is placed in the first tube containing the 3.6 ml of sterile broth and mixed thoroughly. This operation is continued through to the tenth tube. From the tenth tube, 2.0 ml of solution is removed and discarded. Each tube is then inoculated with 0.1 ml of a 24-hour culture of Staphylococcus aureus in Tryptic Soy Broth, and the mixture is mixed thoroughly using a Vortex mixer. A control is also set up to be sure that the inoculum is viable using a tube of sterile broth containing no added toxicant. The tubes are incubated for 24 hours at 37°C. The tubes are then examined to determine growth of the organism in the culture tubes. The minimum concentration in which no growth of the organism occurs is recorded. The following table gives the minimum inhibitory concentration necessary to control the organism: […]

SMILES: O=C(CBr)OC1CCOC1 (stereo not shown) [Compound No. 1, 3-bromoacetoxy tetrahydrofuran]
- MIC [1]: 50 µg/mL (≈ 239 µM)
- MIC [2]: 1 µg/mL (≈ 4.78 µM)
- MIC [3]: 1 µg/mL (≈ 4.78 µM)
- MIC [4]: > 50 µg/mL
- MIC [5]: > 50 µg/mL
- MIC [6]: 50 µg/mL (≈ 239 µM)
- MIC [7]: > 50 µg/mL
- MIC [8]: 50 µg/mL (≈ 239 µM)
- MIC [9]: 50 µg/mL (≈ 239 µM)
- MIC [10]: 50 µg/mL (≈ 239 µM)
- MIC [11]: 50 µg/mL (≈ 239 µM)
- MIC [12]: 50 µg/mL (≈ 239 µM)
- MIC [13]: 50 µg/mL (≈ 239 µM)
- MIC [14]: 5 µg/mL (≈ 23.9 µM)
- MIC [15]: 5 µg/mL (≈ 23.9 µM)
- MIC [16]: 12.5 µg/mL (≈ 59.8 µM)
